This assay deals with RAW264.7. The assay can be described thus: Inhibition of LPS-induced nitric oxide production in mouse RAW264.7 cells after 18 hrs by Griess assay. As to conditions: RAW264.7, 18 h. In kind it is functional, cell-based. (In general: Nitrite, measured by Griess reagent, commonly stands in for NO production.)

Take `CC1=C(C)[C@@]2(C[C@@H](C)[C@H]3[C@H](C[C@@]4(C)c5ccc(C(C)(C)/C=C/CO)c(C)c5C(=O)C[C@]34C)O2)OC1=O`: the IC50 (commonly the midpoint of a concentration-inhibition curve) stood at 2.2 µM.

Turning to `CC1=C(C)[C@@]2(C[C@@H](C)[C@H]3[C@H](C[C@@]4(C)c5ccc(C(C)(C)CCCO)c(C)c5C(=O)C[C@]34C)O2)OC1=O`, the IC50 was found to be 12.8 µM.

For the compound `CC1=C(C)[C@@]2(C[C@@H](C)[C@H]3[C@H](C[C@@]4(C)c5ccc(C(C)(C)/C=C/CO)c(C)c5O[C@H](O)C[C@]34C)O2)OC1=O`, inhibition was half-maximal at 19.6 µM (IC50).

Consider `CC1=C(C)[C@@]2(C[C@@H](C)[C@H]3[C@H](C[C@@]4(C)c5ccc(C(C)(C)/C=C/C(=O)O)c(C)c5C(=O)C[C@]34C)O2)OC1=O`, for which the IC50 was determined as 17.9 µM.

In turn, `CC1=C(C)[C@@]2(C[C@@H](C)[C@H]3[C@H](C[C@@]4(C)c5ccc(C(C)(C)/C=C/C(=O)O)c(C)c5[C@H](O)C[C@]34C)O2)OC1=O` had an IC50 of 4.5 µM.

In turn, `CNC(=N)NCCC[C@H](N)C(=O)O` [TILARGININE] yielded an IC50 of 32.9 µM.

The values above are taken from ChEMBL document CHEMBL4196242, “Irpeksins A-E, 1,10- seco-Eburicane-Type Triterpenoids from the Medicinal Fungus Irpex lacteus and Their Anti-NO Activity” (J Nat Prod, 2018).
